The NIST ThermoML archive (doi:10.1021/je300692s)
± gives the expanded uncertainty stated by the source.

Assay: activity coefficient (dimensionless); of the first substance listed, at infinite dilution; xn = mol fraction of the nth substance listed
Conditions: 101 kPa, Liquid, Chromatography, x1 = 0

SMILES	activity coefficient (323 K)	activity coefficient (333 K)	activity coefficient (343.1 K)	activity coefficient (322.6 K)	activity coefficient (332.5 K)	activity coefficient (342.8 K)	activity coefficient (322.9 K)
C1COCCO1 [1,4-dioxane] + CCCCCCCC[N+]1(C)CCCC1.O=S(=O)([N-]S(=O)(=O)C(F)(F)F)C(F)(F)F	0.32 ± 0.04	0.6 ± 0.06	0.31 ± 0.04				
CCO [ethanol] + CCCCCCCCCC[N+]1(C)CCCC1.O=S(=O)([N-]S(=O)(=O)C(F)(F)F)C(F)(F)F				1.46 ± 0.15	1.34 ± 0.14	1.22 ± 0.13	
CCOCC [diethyl ether] + CCCCCCCC[N+]1(C)CCCC1.O=S(=O)([N-]S(=O)(=O)C(F)(F)F)C(F)(F)F	1.34 ± 0.14	1.34 ± 0.14	1.14 ± 0.12				
CC(C)CO [2-methyl-1-propanol] + CCCCCC[N+]1(C)CCCC1.O=S(=O)([N-]S(=O)(=O)C(F)(F)F)C(F)(F)F		2.67 ± 0.16	1.65 ± 0.1				1.87 ± 0.11
c1ccccc1 [benzene] + CCCCCCCCCC[N+]1(C)CCCC1.O=S(=O)([N-]S(=O)(=O)C(F)(F)F)C(F)(F)F				0.62 ± 0.07	0.63 ± 0.07	0.64 ± 0.07	
C#CCCCCC [1-heptyne] + CCCCCC[N+]1(C)CCCC1.O=S(=O)([N-]S(=O)(=O)C(F)(F)F)C(F)(F)F		2.79 ± 0.29	2.78 ± 0.29				2.24 ± 0.24
Cc1ccccc1 [toluene] + CCCCCCCCCC[N+]1(C)CCCC1.O=S(=O)([N-]S(=O)(=O)C(F)(F)F)C(F)(F)F				0.77 ± 0.08	0.78 ± 0.08	0.8 ± 0.08	
CC1CCCCC1 [methylcyclohexane] + CCCCCCCCCC[N+]1(C)CCCC1.O=S(=O)([N-]S(=O)(=O)C(F)(F)F)C(F)(F)F				3.38 ± 0.36	3.28 ± 0.34	3.15 ± 0.33	
CC1CCCC1 [methylcyclopentane] + CCCCCCCCCC[N+]1(C)CCCC1.O=S(=O)([N-]S(=O)(=O)C(F)(F)F)C(F)(F)F				2.9 ± 0.3	2.76 ± 0.29	2.66 ± 0.28	
CCCCCCCCC [nonane] + CCCCCC[N+]1(C)CCCC1.O=S(=O)([N-]S(=O)(=O)C(F)(F)F)C(F)(F)F		18.2 ± 1.9	18.5 ± 1.9				21.1 ± 2.2
C=CCCCC [hex-1-ene] + CCCCCC[N+]1(C)CCCC1.O=S(=O)([N-]S(=O)(=O)C(F)(F)F)C(F)(F)F		4.63 ± 0.49	4.44 ± 0.47				4.56 ± 0.48
CCCC(C)=O [pentan-2-one] + CCCCCCCCCC[N+]1(C)CCCC1.O=S(=O)([N-]S(=O)(=O)C(F)(F)F)C(F)(F)F				0.52 ± 0.06	0.53 ± 0.06	0.54 ± 0.06	
C#CCCCCC [1-heptyne] + CCCCCCCCCC[N+]1(C)CCCC1.O=S(=O)([N-]S(=O)(=O)C(F)(F)F)C(F)(F)F				1.81 ± 0.19	1.83 ± 0.19	1.83 ± 0.19	
CCCCCCCCCCC [undecane] + CCCCCCCC[N+]1(C)CCCC1.O=S(=O)([N-]S(=O)(=O)C(F)(F)F)C(F)(F)F	16.8 ± 1.8	15.6 ± 1.6	14.6 ± 1.5				
CC#N [acetonitrile] + CCCCCCCCCC[N+]1(C)CCCC1.O=S(=O)([N-]S(=O)(=O)C(F)(F)F)C(F)(F)F				0.49 ± 0.05	0.5 ± 0.06	0.49 ± 0.05	
CCCCCC [hexane] + CCCCCC[N+]1(C)CCCC1.O=S(=O)([N-]S(=O)(=O)C(F)(F)F)C(F)(F)F		7.38 ± 0.78	7.11 ± 0.75				7.74 ± 0.81
C1CCCCC1 [cyclohexane] + CCCCCCCC[N+]1(C)CCCC1.O=S(=O)([N-]S(=O)(=O)C(F)(F)F)C(F)(F)F	3.45 ± 0.36	3.31 ± 0.35	3.06 ± 0.32				
CCCCCCC [heptane] + CCCCCCCC[N+]1(C)CCCC1.O=S(=O)([N-]S(=O)(=O)C(F)(F)F)C(F)(F)F	6.4 ± 0.67	6.06 ± 0.64	5.13 ± 0.54				
C=CCCCC [hex-1-ene] + CCCCCCCC[N+]1(C)CCCC1.O=S(=O)([N-]S(=O)(=O)C(F)(F)F)C(F)(F)F	3.17 ± 0.33	3.02 ± 0.32	2.58 ± 0.27				
C1CCCCCC1 [cycloheptane] + CCCCCC[N+]1(C)CCCC1.O=S(=O)([N-]S(=O)(=O)C(F)(F)F)C(F)(F)F		19 ± 2	25.1 ± 2.6				14 ± 1.5
C#CCCCC [1-hexyne] + CCCCCCCC[N+]1(C)CCCC1.O=S(=O)([N-]S(=O)(=O)C(F)(F)F)C(F)(F)F	1.57 ± 0.16	1.58 ± 0.16	1.34 ± 0.14				
CC(C)O [propan-2-ol] + CCCCCC[N+]1(C)CCCC1.O=S(=O)([N-]S(=O)(=O)C(F)(F)F)C(F)(F)F		1.53 ± 0.16	1.4 ± 0.14				

SMILES	activity coefficient (323 K)	activity coefficient (333 K)	activity coefficient (343.1 K)	activity coefficient (322.6 K)	activity coefficient (332.5 K)	activity coefficient (342.8 K)	activity coefficient (322.9 K)
ClC(Cl)Cl [trichloromethane] + CCCCCCCCCC[N+]1(C)CCCC1.O=S(=O)([N-]S(=O)(=O)C(F)(F)F)C(F)(F)F				0.39 ± 0.05	0.39 ± 0.05	0.41 ± 0.05	
CCCCCC [hexane] + CCCCCCCC[N+]1(C)CCCC1.O=S(=O)([N-]S(=O)(=O)C(F)(F)F)C(F)(F)F	5.01 ± 0.53	4.8 ± 0.5	4.05 ± 0.43				
CCCO [propan-1-ol] + CCCCCCCC[N+]1(C)CCCC1.O=S(=O)([N-]S(=O)(=O)C(F)(F)F)C(F)(F)F	1.49 ± 0.15	1.29 ± 0.13	1.14 ± 0.12				
c1ccncc1 [pyridine] + CCCCCCCCCC[N+]1(C)CCCC1.O=S(=O)([N-]S(=O)(=O)C(F)(F)F)C(F)(F)F				0.47 ± 0.05	0.47 ± 0.05	0.47 ± 0.05	
CC(C)OC(C)C [diisopropyl ether] + CCCCCC[N+]1(C)CCCC1.O=S(=O)([N-]S(=O)(=O)C(F)(F)F)C(F)(F)F		3.56 ± 0.37	3.53 ± 0.37				3.18 ± 0.33
CCCO [propan-1-ol] + CCCCCC[N+]1(C)CCCC1.O=S(=O)([N-]S(=O)(=O)C(F)(F)F)C(F)(F)F		1.64 ± 0.17	1.49 ± 0.15				1.72 ± 0.18
CCc1ccccc1 [ethylbenzene] + CCCCCCCC[N+]1(C)CCCC1.O=S(=O)([N-]S(=O)(=O)C(F)(F)F)C(F)(F)F	1.03 ± 0.1	0.98 ± 0.1	1.04 ± 0.11				
Cc1ccccc1C [1,2-dimethylbenzene] + CCCCCCCCCC[N+]1(C)CCCC1.O=S(=O)([N-]S(=O)(=O)C(F)(F)F)C(F)(F)F				0.92 ± 0.09	0.94 ± 0.1	0.96 ± 0.1	
C1CCCCCC1 [cycloheptane] + CCCCCCCC[N+]1(C)CCCC1.O=S(=O)([N-]S(=O)(=O)C(F)(F)F)C(F)(F)F	8.62 ± 0.91	12.1 ± 1.3	15.4 ± 1.6				
ClC(Cl)Cl [trichloromethane] + CCCCCCCC[N+]1(C)CCCC1.O=S(=O)([N-]S(=O)(=O)C(F)(F)F)C(F)(F)F	0.56 ± 0.06	0.58 ± 0.06	0.53 ± 0.06				
CC(C)O [propan-2-ol] + CCCCCCCCCC[N+]1(C)CCCC1.O=S(=O)([N-]S(=O)(=O)C(F)(F)F)C(F)(F)F				1.52 ± 0.16	1.38 ± 0.14	1.25 ± 0.13	
CCc1ccccc1 [ethylbenzene] + CCCCCCCCCC[N+]1(C)CCCC1.O=S(=O)([N-]S(=O)(=O)C(F)(F)F)C(F)(F)F				1.01 ± 0.05	1.04 ± 0.06	1.06 ± 0.06	
CCCCCCC [heptane] + CCCCCCCCCC[N+]1(C)CCCC1.O=S(=O)([N-]S(=O)(=O)C(F)(F)F)C(F)(F)F				4.91 ± 0.52	4.75 ± 0.5	4.62 ± 0.49	
CCC(C)=O [butanone] + CCCCCCCCCC[N+]1(C)CCCC1.O=S(=O)([N-]S(=O)(=O)C(F)(F)F)C(F)(F)F				0.39 ± 0.05	0.37 ± 0.04	0.34 ± 0.04	
C[N+](=O)[O-] [nitromethane] + CCCCCCCCCC[N+]1(C)CCCC1.O=S(=O)([N-]S(=O)(=O)C(F)(F)F)C(F)(F)F				0.63 ± 0.07	0.62 ± 0.07	0.6 ± 0.06	
CCCCCCCC [octane] + CCCCCC[N+]1(C)CCCC1.O=S(=O)([N-]S(=O)(=O)C(F)(F)F)C(F)(F)F		13.4 ± 1.4	12.9 ± 1.4				14.2 ± 1.5
CCCCO [butan-1-ol] + CCCCCC[N+]1(C)CCCC1.O=S(=O)([N-]S(=O)(=O)C(F)(F)F)C(F)(F)F		2.86 ± 0.3	2.04 ± 0.21				2.28 ± 0.24
CC(C)CO [2-methyl-1-propanol] + CCCCCCCC[N+]1(C)CCCC1.O=S(=O)([N-]S(=O)(=O)C(F)(F)F)C(F)(F)F	1.59 ± 0.17	1.44 ± 0.15	1.22 ± 0.13				
ClC(Cl)(Cl)Cl [tetrachloromethane] + CCCCCCCCCC[N+]1(C)CCCC1.O=S(=O)([N-]S(=O)(=O)C(F)(F)F)C(F)(F)F				1.32 ± 0.14	1.12 ± 0.11	1.31 ± 0.13	
C=CCCCC [hex-1-ene] + CCCCCCCCCC[N+]1(C)CCCC1.O=S(=O)([N-]S(=O)(=O)C(F)(F)F)C(F)(F)F				2.68 ± 0.28	2.62 ± 0.28	2.57 ± 0.27	
CC#N [acetonitrile] + CCCCCCCC[N+]1(C)CCCC1.O=S(=O)([N-]S(=O)(=O)C(F)(F)F)C(F)(F)F	0.43 ± 0.05	0.39 ± 0.05	0.37 ± 0.04				
C1COCCO1 [1,4-dioxane] + CCCCCC[N+]1(C)CCCC1.O=S(=O)([N-]S(=O)(=O)C(F)(F)F)C(F)(F)F		0.42 ± 0.05	0.44 ± 0.05				0.58 ± 0.06
